Peptide text beside a SMILES is read from it. * marks the point of attachment. Cbz = O=C(OCc1ccccc1)*
Key:
Format in all cases: cell-based, human
[1] = test system: MDA-MB231 breast cancer cells; experiment: Cytotoxicity and growth assay in MDA-MB231 breast cancer cells (SRB, TCA-precipitated protein); conditions: MDA-MB231; up to 3 days
Experimental: An invasive, estrogen-independent breast cancer cell line that spontaneously expresses high levels of Notch-1 and -4, MDA-MB231, and normal human breast cells were used to investigate whether inhibition of Notch activation or expression affects the biological behavior of breast cancer cells. Human Mammary Epithelial Cells (HMEC) were purchased from Clonetics and cultured in mammary epithelial cell basal medium (MEBM) supplemented with 52 μg/ml Bovine Pituitary Extract […], […] human recombinant Epidermal Growth Factor (hEGF), 5 μg/ml insulin, 0.5 μg/ml Hydrocortisone, 50 μg/ml Gentamicin and 50 μg/ml Amphotericin-B. MDA-MB231 (ATCC, Rockville, Md.) were cultured in DMEM medium with 10% FBS. Notch expression in HMEC and MDA-MB231 cells was silenced using highly specific RNAi. Double-stranded synthetic 21-mer RNA oligonucleotides (siRNAs) were purchased from Dharmacon (Lafayette, Colo.). […] Sequence specificity was determined by BLAST searches which determined the uniqueness of the sequences. Transfection of siRNAs was performed using Oligofectamine (Invitrogen) as recommended by the siRNA manufacturer (Dharmacon). Transfection efficiency was optimized and followed on parallel wells using DNA double stranded oligos of identical sequence to the siRNAs, labeled with biotin on one strand. Transfected cells were identified by Streptavidin-horseradish peroxidase staining (Vectastain) and counted. Transfection efficiencies around 80% were routinely obtained.
Cytotoxicity and growth of transfected cells were estimated by a standard assay used for cancer drug screening, through the total amount of TCA-precipitated cell proteins after drug treatment (Likhitwitayawuid, K et al., 1993, J Nat Prod 56:30-38): 200 μl of cell suspension (10^5 cells/ml) were added to each well in a 96-well plate. After incubation at, 37° C., in 5% CO2 (30 minutes to 72 hours depending on the time course chosen), 50 μl 50% trichloroacetic acid was added to each well. After incubation at 4° C. for 1 hour, precipitates were washed with water 4-5 times and air dried overnight. One hundred μl of SRB solution (0.4% sulforhodamine B in 1% acetic acid, filtered before use) was added to each well for 30 minutes. Wells were washed with 1% acetic acid 4-5 times and air dried. Two hundred μl 10 mM Tris base was added to each well. Plates were shaken for 5-10 minutes and OD at 490 nm (OD490) was recorded via ELISA reader. To assay matrix invasion, 300 μl of cell suspension (10^6 cells/mL in serum-free medium) were added to invasion inserts (BioCoat Matrigel Invasion Chambers, Becton Dickinson, Bedford, Mass.) and incubated for 22 hours at 37° C., 5% CO2. […] After removal of the non-invading cells from the interior of the inserts, stained invading cells were lysed in 10% acetic acid and OD595 was determined. […]

[2] = test system: MDA-MB231 breast cancer cells; experiment: Extracellular matrix invasion of MDA-MB231 cells (Matrigel Invasion Chambers); conditions: 25 μM, 22 h
Experimental: Cytotoxicity and growth of transfected cells were estimated by a standard assay used for cancer drug screening, through the total amount of TCA-precipitated cell proteins after drug treatment (Likhitwitayawuid, K et al., 1993, J Nat Prod 56:30-38): 200 μl of cell suspension (10^5 cells/ml) were added to each well in a 96-well plate. After incubation at, 37° C., in 5% CO2 (30 minutes to 72 hours depending on the time course chosen), 50 μl 50% trichloroacetic acid was added to each well. After incubation at 4° C. for 1 hour, precipitates were washed with water 4-5 times and air dried overnight. One hundred μl of SRB solution (0.4% sulforhodamine B in 1% acetic acid, filtered before use) was added to each well for 30 minutes. Wells were washed with 1% acetic acid 4-5 times and air dried. Two hundred μl 10 mM Tris base was added to each well. Plates were shaken for 5-10 minutes and OD at 490 nm (OD490) was recorded via ELISA reader. To assay matrix invasion, 300 μl of cell suspension (10^6 cells/mL in serum-free medium) were added to invasion inserts (BioCoat Matrigel Invasion Chambers, Becton Dickinson, Bedford, Mass.) and incubated for 22 hours at 37° C., 5% CO2. Cells were stained with 0.9% crystal violet in 10% ethanol for 20 minutes. Inserts were dipped in water several times and air dried. After removal of the non-invading cells from the interior of the inserts, stained invading cells were lysed in 10% acetic acid and OD595 was determined.
Notch silencing was confirmed by Western blot as described above in Example 15 using commercial goat polyclonal antibodies from Santa Cruz Biotechnology to Notch-1 (C-20, Cat# sc-6014 S). For the Western blot analyses, MDA-MB231 cells were treated with 25 μM IL-X for 48 h or with 0.5, 1 or 2 μM z-Leu-Leu-Nle-CHO for 24 h. Cytotoxicity and matrix invasion assays were performed as described above in Example 15. For the cytotoxicity assays, MDA-MB231 cells were treated with […] IL-X for up to 3 days or with 0-20 μM z-Leu-Leu-Nle-CHO for up to 4 days. […]

Notch-1 = experiment: Notch Western blot in MDA-MB231 cells; conditions: MDA-MB231; 25 μM; 48 hours
Experimental: Notch silencing was confirmed by Western blot using commercial goat polyclonal antibodies from Santa Cruz Biotechnology to Notch-1 (C-20, Cat# sc-6014 S) and Notch-4 (C-19, Cat# sc-8644). Total cell lysates were prepared as follows: cells grown on 6 cm dishes were scraped in lysis buffer containing 1×PBS, 1% Nonidet P40, 0.5% deoxycholate, 0.1% SDS, freshly added aprotinin (45 μg/ml), phenylmethylsulfonyl fluoride (10 μg/ml), and sodium orthovanadate (10 μM). Lysates were sonicated 4 times for 5 seconds each, followed by 30 minutes incubation on ice. Lysates were centrifuged at 10,000 g for 20 minutes at 4° C. Supernatants were used as total cell lysates. Nuclear extracts were prepared as follows: 10,000,000 cells were pelleted, washed, and quickly frozen in a dry ice bath. Pellets were thawed by adding 100 μl of buffer 1 (10 mM HEPES, pH 7.9, 10 mM KCl, 1.5 mM MgCl2, 1 mM DTT). Nuclei were pelleted and lysed in 15 μl Buffer 2 (20 mM HEPES, pH7.9, 0.4 M NaCl, 1.5 mM MgCl2, 25% glycerol, 0.2 mM EDTA, 1 mM DTT, and 0.5 mM PMSF). Lysates were diluted in 50-70 μl Buffer 3 (20 mM HEPES, pH 7.9, 50 mM KCl, 20% glycerol, 0.2 mM EDTA, 1 mM DTT, 0.5 mM PMSF). Protein concentrations were estimated using the BCA protein assay (Pierce). Supernatants were boiled in reducing SDS sample buffer (Novex). Twenty μg protein per lane were run on a 3-8% Tris acetate gel (Invitrogen) in Tris Acetate Reducing Running Buffer (Novex). Protein bands were transferred onto PVDF membranes (BioRad) using transfer buffer (Novex). Membranes were then blocked overnight at 4° C. in 2% blocking solution in TBS (Roche). Primary antibodies were diluted in 2% Boehringer blocking solution (total volume 5 ml). Membranes were incubated for one hour at room temperature with shaking, then washed 6 times for 10 minutes each in TBS wash buffer. Membranes were incubated in secondary antibody in 2% of blocking solution for 30 minutes, then washed 6 times for 10 minutes each at RT in wash buffer. Bands were detected with chemiluminescent reagent (Roche) according to the manufacturer's directions. […]

normal melanocytes = experiment: Proteasome inhibitors, apoptosis of normal melanocyte cultures (Annexin V FITC flow cytometry); conditions: MC-005, MC-006, MC-008; 24 hrs; 1, 5 or 10 μM
Experimental: (§1) The proteasome inhibitors lactacystin, MG-132, and bortezomib were evaluated for the ability to induce apoptosis in malignant melanoma cell lines (n=3) including an early passage line, RJ002L. MG-132 was obtained from Calbiochem (La Jolla, Calif.) and dissolved in DMSO. Lactacystin was purchased from Sigma Chemical Co. (St. Louis, Mo.) and dissolved in PBS. Bortezomib was obtained from a pharmacy as VELCADE (bortezomib) for Injection from a single use vial for intravenous use only (Millennium Pharmaceuticals, Cambridge, Mass.). A cell line with wild-type p53 (RJ002L) and two melanoma cell lines with mutant p53 alleles (C8161 and MUM2B) were included in this study. Two additional melanoma cell lines were also used: cutaneous SK-MeI-28 cells and primary, early passage MG012 cells. In addition, five normal melanocyte culture cell lines (MC-005, MC-006, MC-008, MC-009 and MC-011) were examined. Prior to testing, the melanoma cell lines were maintained in RPMI supplemented with 10% FBS. Normal human melanocytes were isolated from neonatal foreskins as previously described (Qin J et al., 2004, Mol Cancer Ther 3:895-902, 2004) and cultured with medium 154 containing growth supplements (Cascade Biologics, Portland, Oreg.).
To assess the effect of proteasome inhibitors on the cell lines, the cells were grown in suitable culture media as described above. […]
Following treatment with the proteasome inhibitors, the melanoma and melanocyte cell cultures were assayed for apoptotic cells using the APO TARGET Annexin V FITC staining kit (Biosource, Camarillo, Calif.) according to the manufacturer's instructions followed by flow cytometric analysis using FACScaliber (Becton Dickinson, Palo Alto, Calif.) as described in Qin, J. et al., 2001, Nat Med 7: 385-386. In some cases, cell cycle and apoptosis analysis was measured using propidium iodide staining and flow cytometry as described. […] For cell analysis, DNA histograms were analyzed using MultiCycle for Windows (Phoenix Flow Systems, San Diego, Calif.) as described in Denning, M. F. et al., 1998, J Biol Chem 273: 29995-30002.

melanoma cell lines = experiment: Proteasome inhibitors, apoptosis of melanoma cell lines (Annexin V FITC flow cytometry); conditions: RJ002L, MG012, C8161, MUM2B, SK-MeI-28; 1-10 μM; 24 hrs
Experimental: as §1
To assess the effect of proteasome inhibitors on the cell lines, the cells were grown in suitable culture media as described above. Highly proliferating cells (i.e., cells that had reached approximately 30% confluency) were exposed to the inhibitors as described below. The culture media was replenished with media containing proteasome inhibitors at various concentrations and the cells were incubated for 24 hours prior to harvesting the cells for further analysis.
Following treatment with the proteasome inhibitors, the melanoma and melanocyte cell cultures were assayed for apoptotic cells using the APO TARGET Annexin V FITC staining kit (Biosource, Camarillo, Calif.) according to the manufacturer's instructions followed by flow cytometric analysis using FACScaliber (Becton Dickinson, Palo Alto, Calif.) as described in Qin, J. et al., 2001, Nat Med 7: 385-386. In some cases, cell cycle and apoptosis analysis was measured using propidium iodide staining and flow cytometry as described. Cells with DNA content less than the G0 amount of untreated cells were considered apoptotic. For cell analysis, DNA histograms were analyzed using MultiCycle for Windows (Phoenix Flow Systems, San Diego, Calif.) as described in Denning, M. F. et al., 1998, J Biol Chem 273: 29995-30002.

NOXA [3] = experiment: Western blot of NOXA after proteasome inhibitors in melanoma cells; conditions: RJ002L, C8161, MUM2B; 1 μM or 10 μM; 18 hrs
Text: (§2) A panel of melanoma cells were used to assess the effect of bortezomib on pro-apoptotic proteins. RJ002L, C8161, MUM2B and SK-MeI-28 melanoma cells, as well as two normal melanocyte cultures (MC-010 and MC-012) were examined. Prior to testing, the RJ002L melanoma cell lines were maintained in RPMI supplemented with 10% FBS. Late passage melanoma cell lines (C8161, MUM2B and SK-Me1028) were utilized as previously described (Welch D et al., 1991, Int J Cancer 47:227-237; Bittner M et al., 2000, Nature 406:536-540). Normal human melanocytes were isolated from neonatal foreskins and cultured as previously described (Qin J et al., 2004, Mol Cancer Ther 3:895-902). Proliferating cells were examined by Western blot analysis before and after 18 hrs of exposure to bortezomib (1 μM). Antibodies were obtained as follows: Bad (SC-8044), Bcl-2 (SC-7382), Bcl-xL (SC-634), Mcl-1 (SC-819), Bak (SC-832) from Santa Cruz Biotechnology (Santa Cruz, Calif.); NOXA (OP180) from Calbiochem; Bid, Bim and PUMA from Cell Signaling (Beverly, Mass.); BAX from Upstate (Charlottesville, Va.); and β-actin from ICN (Irvine, Calif.). For the Western blot analysis, whole cell extracts were prepared as previously described (Denning M et al., 1998, J Biol Chem 273:29995-30002). Briefly, cells were harvested by scraping monolayers and washed with PBS. Cell pellets were resuspended in CHAPS buffers containing a protease inhibitor cocktail. Extracts were vigorously shaken at 4° C. for 15 min followed by centrifugation. Supernatants were collected and protein concentration determined using Bio-Rad reagent. Thirty to 50 microgram protein samples were resolved by SDS-polyacrylamide gel electrophoresis and transferred to polyvinylidene difluoride membrane by electroblotting. Membranes were probed with the various primary antibodies overnight at 4° C., followed by detection using ECL reagents (Amersham Pharmacia Biotech, Piscataway, N.J.) according to manufacturer's instructions.
(§3) Two other proteasome inhibitors, lactasytsin and MG-132, were tested for the ability to induce NOXA in melanoma cells and melanocytes. […]

NOXA [4] = experiment: Western blot of NOXA after proteasome inhibitors in normal melanocytes; conditions: MC-004, MC-005, MC-006, MC-008; 1 μM or 10 μM; 18 hrs
Text: as §2, §3

## CCC(C)C(NC(=O)OCc1ccccc1)C(=O)NC(C=O)CC(C)C (stereo not drawn) [IL-X, cbz-IL-CHO] (Cbz-Ile-Leu-aldehyde; configuration not given here)
[1]
  concentration above which cytotoxic: above 100 μM
[2]
  in vitro matrix invasion: significantly reduced in vitro matrix invasion
Notch-1
  molecular forms of Notch-1: apparent reduction in all molecular forms of Notch-1

## CC(=O)N[C@@H](CSC(=O)[C@]1([C@@H](O)C(C)C)NC(=O)[C@H](C)[C@@H]1O)C(=O)O [lactacystin]
Normal melanocytes
  cells undergoing apoptosis: no more than 10%
Melanoma cell lines
  apoptotic response to increasing concentrations: significantly enhanced apoptotic responses
NOXA [3]
  NOXA induction: induced high NOXA levels
NOXA [4]
  NOXA induction: no induction of NOXA in any of the normal melanocytes
